According to publication PMC11678778, “Anti-Inflammatory Properties of Novel 1,2-Benzothiazine Derivatives and Their Interaction with Phospholipid Model Membranes” (Membranes, 2024):

Experiments:
[1] = system: NHDF cells exposed to LPS; assay: Inflammation model, MTT assay after LPS; format: cell-based, human; conditions: LPS 50 µg/mL 24 h, then compound 10, 50, 100 µM 24 h
Description: Cells seeded in 96-well plates were treated with 50 ug/mL LPS for 24 h for the MTT assay or 1 h for the DCF-DA assay. […] After this time, MTT and DCF-DA assays were performed according to the procedure described in Wiatrak et al.

[2] = DPPH radical scavenging assay; format: physicochemical; conditions: 30 min incubation, 37 °C; mean ± SD, n = 3
Description: The DPPH assay was conducted to assess the radical scavenging capabilities of the synthesized compounds. Stock solutions of the compounds were formulated in DMSO and subsequently diluted serially to achieve test concentrations ranging from 500 to 10 μM in ethanol. Each sample’s ethanolic DPPH solution was treated with the respective test concentrations and incubated at 37 °C. After a 30 min incubation period, the absorbance was measured at 517 nm, using ethanol as the blank control. Ascorbic acid served as the reference standard, and the IC50 values for the synthesized compounds were determined using the following Equation (2):(2) %DPPH scavenging activity=Abscontrol−Abs sample/Abs (control)×100

[3] = system: NHDF (normal human dermal fibroblast) cells; assay: MTT cytotoxicity assay; format: cell-based; conditions: NHDF cell cultures, 24 h incubation, mean ± SD
Description: NHDF (normal human dermal fibroblast) cells, sourced from the American Type Culture Collection (ATCC), were maintained in DMEM without phenol red, enhanced with 10% fetal bovine serum (FBS), 2 mM L-glutamine, and 25 μg/mL gentamicin. The cells were incubated under conditions of 5% CO2, at a temperature of 37 °C, and 95% humidity. We monitored the cells bi-weekly, utilizing or subculturing them once they reached over 70% confluence. For all experimental setups, cells were plated at a density of 10,000 cells per well and allowed to recover in a CO2 incubator for 24 h.
The compounds under investigation were dissolved in DMSO to achieve a final concentration of 10 mM and then stored at −20 °C. Lipopolysaccharide (LPS) from Escherichia coli (Sigma-Aldrich, Saint Louis, MO, USA; catalog no. L2630) was dissolved in distilled water to a concentration of […]. The stock solution of LPS was stored at −20 °C for up to 6 months. Final concentrations of LPS used in this study were 50 µg/mL. Prior to use, the solutions were thawed at room temperature. For each compound, 8 different concentrations in the range of 500–10 μM were prepared in the culture medium.
The cytotoxicity of the test compound was assessed using the MTT assay. After cell seeding and overnight incubation, the supernatant was removed, and the compounds were added at concentrations ranging from 500 to 10 µM. Control cells were treated with complete medium only, while cells treated with medium containing DMSO at the highest compound concentration were included as the solvent control. After the incubation period, the supernatant was removed, and 50 µL of a 1.0 mg/mL MTT solution was added to each well and incubated for 2 h at 37 °C. The medium was then removed, and 100 µL of DMSO was added to each well. Finally, absorbance was measured at 570 nm using a Multiskan GO spectrophotometer.
Cell viability was calculated according to Equation (1): (Ai − Am)/(Ac − Am) × 100(Ai − Am)/(Ac − Am) × 100(1) where Ai is the absorbance of the tested concentration, Am is the absorbance of the medium, and Ac is the absorbance of the control. Based on the cytotoxicity test results, the IC50 was calculated using a 4-point lognormal distribution with a Hill coefficient. Experiments were performed in triplicate.

IL-6 = assay: Gene expression by real-time RT-PCR; format: cell-based, human; conditions: inflamed NHDF cells, 10 µM, 24 h
Description: (§1) The NHDF cells were treated according to the previously outlined procedure. The control and LPS groups were incubated separately in culture dishes containing DMEM, while the test compounds groups were placed in dishes with 10 µM BS23 and BS28, respectively. After a 24 h incubation at 37 °C in a 5% CO2 atmosphere, the NHDF cells were scraped from the bottom of the microplate using a rubber, and then they were centrifuged at 9000× g for 5 min. The pellet was washed with ice-cold PBS twice. RNA was isolated using a Total RNA Mini Plus kit (A&A Biotechnology, Gdańsk, Poland) followed by DNase I (Thermo Fisher Scientific, Waltham, MA, USA) treatment according to the producer’s instructions. cDNA synthesis was performed using a Fast Gene Scriptase II cDNA (Nippon Genetics Europe, Duren, Germany). RT-qPCR analyses were performed using the DyNAmo Flash SYBR Green qPCR Kit (Thermo Fisher Scientific, Waltham, MA, USA) and the CFX Connect Real-Time PCR Detection System (Bio-Rad, Hercules, CA, USA) . Relative gene expression was normalized to the reference gene, β-actin, using the 2^−ΔΔCT method. The primer sequences utilized in this study were as follows: IL-6: F, 5′-[…]-3′; R, 5′-[…]-3′; TNF-α: F, 5′-[…]-3′; R, 5′-[…]-3′; β-actin: F, 5′-[…]-3′; R, 5′-[…]-3′. All experiments were performed at least three times.

TNF-α = assay: Gene expression by real-time RT-PCR; format: cell-based, human; conditions: inflamed NHDF cells, 10 µM, 24 h
Description: as §1

COX-2 = target: T1, COX-2 (Homo sapiens, UniProt P35354); assay: Cyclooxygenase inhibition assay (colorimetric, peroxidase activity, TMPD oxidation); format: biochemical; conditions: for IC50: incubation 2 min, mean ± SD; for Selectivity Ratio: (COX-2/COX-1): ratio of IC50 values
T1 construct: purchased
T1 sequence (P35354 18-604): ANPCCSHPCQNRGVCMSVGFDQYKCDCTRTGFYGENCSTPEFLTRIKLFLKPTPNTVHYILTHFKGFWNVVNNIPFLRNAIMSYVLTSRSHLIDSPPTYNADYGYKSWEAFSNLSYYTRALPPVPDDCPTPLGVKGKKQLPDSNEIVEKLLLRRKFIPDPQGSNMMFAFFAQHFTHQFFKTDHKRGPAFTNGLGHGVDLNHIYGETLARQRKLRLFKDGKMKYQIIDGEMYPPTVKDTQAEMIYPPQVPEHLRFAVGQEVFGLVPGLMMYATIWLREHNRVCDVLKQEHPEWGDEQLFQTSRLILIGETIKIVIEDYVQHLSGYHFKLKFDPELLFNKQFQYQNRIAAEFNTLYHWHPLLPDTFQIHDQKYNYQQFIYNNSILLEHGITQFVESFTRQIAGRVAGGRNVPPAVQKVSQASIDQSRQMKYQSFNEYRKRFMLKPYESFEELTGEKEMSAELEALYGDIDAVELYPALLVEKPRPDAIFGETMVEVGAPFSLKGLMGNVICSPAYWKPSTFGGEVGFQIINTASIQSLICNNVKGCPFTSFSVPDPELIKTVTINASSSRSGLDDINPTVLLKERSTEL
Description: (§2) To conduct the cyclooxygenase inhibition assay, we utilized a kit from the manufacturer that contained 150 μL of assay buffer, 10 μL of heme, and 10 μL of either COX-1 or COX-2 enzyme. Each sample was prepared in triplicate, with the addition of 10–500 μM of the test compounds and […] of solvents such as methanol, ethanol, and dimethyl sulfoxide (DMSO). We then added 20 μL of N,N,N cent,N cent-tetramethyl-p-phenylenediamine (TMPD) to each well. Arachidonic acid was introduced to initiate the reaction, which was allowed to proceed for 2 min. Following the incubation period, the extent of TMPD oxidation was measured using the multiscan Go microplate reader at a wavelength of 590 nm (Thermo Fisher Scientific, Waltham, MA, USA).
Cyclooxygenase (COX) peroxidase activity was evaluated using a colorimetric assay. […] The incubation period was maintained at 2 min, following the manufacturer’s guidelines. […] IC50 values were then calculated, and the ratio of IC50 values for both cyclooxygenase isoforms allowed us to assess the selectivity of the tested structures for COX-1 and COX-2.

COX-1 = target: T2, COX-1 (Ovis aries, UniProt P05979); assay: as above; format: biochemical; conditions: incubation 2 min; mean ± SD
T2 construct: purchased
T2 sequence (P05979 25-600): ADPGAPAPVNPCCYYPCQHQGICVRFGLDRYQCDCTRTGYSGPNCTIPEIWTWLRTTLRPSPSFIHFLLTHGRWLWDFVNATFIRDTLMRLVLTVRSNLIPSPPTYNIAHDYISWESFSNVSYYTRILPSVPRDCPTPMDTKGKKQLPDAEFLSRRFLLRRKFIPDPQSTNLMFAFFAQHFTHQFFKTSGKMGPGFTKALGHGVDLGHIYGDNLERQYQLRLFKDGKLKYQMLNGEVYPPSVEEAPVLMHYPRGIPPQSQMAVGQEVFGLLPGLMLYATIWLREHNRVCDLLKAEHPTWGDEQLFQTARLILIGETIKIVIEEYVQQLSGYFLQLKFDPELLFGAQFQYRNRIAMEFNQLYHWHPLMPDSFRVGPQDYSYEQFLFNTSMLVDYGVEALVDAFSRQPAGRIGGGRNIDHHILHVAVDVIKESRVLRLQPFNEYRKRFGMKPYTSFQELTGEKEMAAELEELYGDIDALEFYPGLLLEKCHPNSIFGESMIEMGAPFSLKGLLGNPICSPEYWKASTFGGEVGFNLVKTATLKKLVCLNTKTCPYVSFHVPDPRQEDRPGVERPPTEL
Description: as §2
Cyclooxygenase (COX) peroxidase activity was evaluated using a colorimetric assay. […] The incubation period was maintained at 2 min, following the manufacturer’s guidelines. […] We determined the concentrations of all compounds required for 50% inhibition of COX-1 and COX-2. IC50 values were then calculated, and the ratio of IC50 values for both cyclooxygenase isoforms allowed us to assess the selectivity of the tested structures for COX-1 and COX-2.

[4] = ABTS radical scavenging assay; format: physicochemical; conditions: 30 min incubation; mean ± SD, n = 3
Description: The activity of ABTS (2,2′-azino-bis(3-ethylbenzothiazoline-6-sulphonic acid)) was assessed to evaluate the radical scavenging potential of the synthesized compounds. The ABTS reagent was generated by combining equal volumes of a 7 mM aqueous solution of ABTS and a 2.45 mM potassium persulfate solution. This mixture was then incubated in the dark at room temperature for 16 h. Following incubation, the solution was diluted with ethanol until the absorbance reached approximately 0.7 ± 0.05 at a wavelength of 734 nm. The stock solutions of the synthesized compounds in DMSO were serially diluted to obtain concentrations ranging from 500 μM to 10 μM in ethanol. The ABTS reagent was then treated with various concentrations of each compound and incubated in the dark at room temperature. After 30 min of incubation, the absorbance was measured at 734 nm, using ethanol as the blank control. Ascorbic acid served as the standard for comparison, and the IC50 values for the synthesized compounds were calculated using the following Equation (3):(3) %ABTS scavenging activity=Abscontrol−Abs sample/Abs (control)×100

SMILES	IC50 [2] [µM]	IC50 (COX-2) [µM]	Selectivity Ratio: (COX-2/COX-1) (COX-2)	IC50 (COX-1) [µM]	IC50 [4] [µM]	cell viability after LPS then compound [1]	IC50 [3] [µM]	expression of IL-6 mRNA compared to the LPS group (IL-6)	expression of TNF-α mRNA compared to the LPS group (TNF-α)
COc1ccc(C(=O)C2=C(O)c3ccccc3S(=O)(=O)N2CCCN2CCN(c3ccccn3)CC2)cc1 [BS23]	> 500	13.2 ± 2.1	0.05	242 ± 4.2	54.2 ± 2.2	around 70 % of the value for untreated (control) cells	228 ± 28.1	markedly reduced	markedly reduced
Cc1ccc(C(=O)C2=C(O)c3ccccc3S(=O)(=O)N2CCCN2CCN(c3ccccn3)CC2)cc1 [BS25]	> 500	62.6 ± 1.7	0.48	131 ± 7.5	75.3 ± 1.4		200 ± 20.9		
O=C(C1=C(O)c2ccccc2S(=O)(=O)N1CC(=O)N1CCN(c2ccccc2)CC1)c1ccc(Br)cc1 [BS28, 3-(4-Bromobenzoyl)-2-[2-(4-phenylpiperazin-1-yl)-2-oxoethyl]-4-hydroxy-2H-1,2-benzothiazine 1,1-dioxide]	> 500	12.5 ± 1.9	0.13	95.9 ± 5.7	88.4 ± 1.9		180 ± 13.6	markedly reduced	markedly reduced
O=C(C1=C(O)c2ccccc2S(=O)(=O)N1CCCN1CCN(c2ccccn2)CC1)c1ccc(Br)cc1 [BS29]	> 500	17.8 ± 2.1	0.14	125 ± 6.7	53.7 ± 1.7		233 ± 11.8		
O=C1O[C@H]([C@@H](O)CO)C(O)=C1O [ascorbic acid, reference compound]	218.3 ± 1.8				124 ± 2.3				
Cc1cnc(NC(=O)C2=C(O)c3ccccc3S(=O)(=O)N2C)s1 [meloxicam, reference compound]	> 500				89.5 ± 1.5		174 ± 20.3		

Second part, led by results:

IC50 [2] [µM]	IC50 (COX-2) [µM]	Selectivity Ratio: (COX-2/COX-1) (COX-2)	IC50 (COX-1) [µM]	IC50 [4] [µM]	SMILES	cell viability after LPS then compound [1]	IC50 [3] [µM]	expression of IL-6 mRNA compared to the LPS group (IL-6)	expression of TNF-α mRNA compared to the LPS group (TNF-α)
> 500	26.3 ± 3.4	0.21	127 ± 3.6	63.2 ± 2.8	COc1ccc(C(=O)C2=C(O)c3ccccc3S(=O)(=O)N2CCCN2CCN(c3ncccn3)CC2)cc1 [BS24]		163 ± 15.7		
> 500	18.2 ± 4.3	0.14	129 ± 9.1	83.7 ± 3.2	O=C(C1=C(O)c2ccccc2S(=O)(=O)N1CCCN1CCN(c2ccccn2)CC1)c1ccc(F)cc1 [BS26]		203 ± 22.9		
> 500	25.6 ± 2	0.22	117 ± 4.3	83.3 ± 2.5	O=C(C1=C(O)c2ccccc2S(=O)(=O)N1CCCN1CCN(c2ncccn2)CC1)c1ccc(F)cc1 [BS27]		191 ± 12.5		
> 500	59.2 ± 3.7	0.49	122 ± 3.4	88.3 ± 1.6	O=C(C1=C(O)c2ccccc2S(=O)(=O)N1CCCN1CCN(c2ncccn2)CC1)c1ccc(Br)cc1 [BS30]		168 ± 30.4		
